Assay results published in patent US9580398B2, “Compounds, compositions, and methods for modulating ferroptosis and treating excitotoxic disorders” (The Trustees of Columbia University in the City of New York, priority 2012, dated 2017).

Legend:
HT-1080 cells [1] = experiment: LOC library screening and confirmation: inhibition of erastin-induced ferroptosis; assay type: cell-based, human; details: LOC library screening and confirmation studies, read-out: EC50, inhibitor of erastin-induced ferroptosis
Procedure: The LOC library was screened over the course of several days. 384-well glass bottom assay plates (Corning) were seeded with 1,000 HT-1080 cells/well the day before the experiment. The day of the experiment, LOC mother plates were thawed at room temperature for 1 hour and spun at 1000 rpm for 1 minute prior to use. Using a BioMek liquid handing robot, 2 μL of compound solution from each LOC library mother plate was transferred to a 384 deep well “daughter” plate (Grenier) containing 148 μL of cell culture media. The cell culture media in each assay plate was then removed by flicking and, using a BioMek FX, replaced with 36 μL of growth media containing erastin (5 μM final). To this was added 4 μL of the drug solution from the daughter plate, for a final screening concentration of 5.3 μg/mL for each LOC library compound. 4 wells containing DMSO alone (no erastin), 4 wells containing 100 μM DFO alone (no erastin), 4 wells containing erastin plus DMSO, and 4 wells containing erastin plus 100 μM DFO (positive control) were included as controls on each plate. Each drug daughter plate was aliquoted separately to duplicate assay plates. Plates were then spun briefly (1000 rpm, 5 seconds) and returned to the 37° C. tissue culture incubator. 24 hours later, cell viability was assessed by Alamar Blue as described above.
Candidate hits from the LOC library screen were identified. […]

[2] = system: ROS production in HT-1080 cells; experiment: Analysis of reactive oxygen species production by flow cytometry (H2DCFDA, C11-BODIPY, MitoSOX); assay type: cell-based, human; details: erastin 10 μM; HT-1080 cells; H2DCFDA, C11-BODIPY
Procedure: The day before the experiment, 200,000 cells/well were seeded in 6-well dishes (Corning Inc., Corning, N.Y.). […] Data was collected from the FL1 (H2DCFDA, C11-BODIPY) or FL2 channel (MitoSOX). A minimum of 10,000 cells were analyzed per condition.

[3] = system: rat organotypic hippocampal slice culture (OHSC); experiment: Glutamate-induced excitotoxic cell death in organotypic hippocampal slice cultures (PI uptake); assay type: cell-based; details: 5 mM L-glutamate 3 hours; 24 hours after; DG, CA1, CA3; Fer-1 2 μM, CPX 5 μM, MK-801 10 μM
Procedure: OHSCs were cultured as previously described (Morrison et al., 2002) with approval from Columbia University's Institutional Animal Care and Use Committee (IACUC). Briefly, Sprague Dawley rat pups (P8-P10) were rapidly decapitated, and the hippocampus placed in ice-cold Gey's balanced salt solution (Sigma). 400 μm thick sections were cut using a Mcllwain tissue chopper and immediately plated on Millicell cell culture inserts (Millipore, Billerica, Mass.) in Neurobasal (Invitrogen) media supplemented with B27 (1×, Invitrogen), GlutaMAX (1 mM, Invitrogen), and D-glucose (4.5 mg/mL, Sigma) at 37° C. and 5% CO2. After 2 days in vitro (DIV), the media was changed to medium containing serum comprised of 50% DMEM (Sigma), 25% heat-inactivated horse serum (Sigma), 25% Hank's balanced salt solution (Sigma), GlutaMAX (1 mM, Invitrogen), and D-glucose (4.5 mg/mL, Sigma). Medium was changed every 2-3 days.
After 10-14 DIV, OBSCs were exposed to an excitotoxic injury consisting of a 3 hour exposure to 5 mM L-glutamate in SFM (Morrison et al., 2002). Only healthy OHSCs defined as those with less than 5% cell death in all regions of the hippocampus (DG, CA3, CA1) pre-injury were used for experiments. After the 3 hour exposure, the cultures were placed in fresh serum free media (SFM) containing 75% DMEM, 25% Hank's balanced salt solution, GlutaMAX (1 mM), D-glucose (4.5 mg/mL) until cell death was quantified at 24 hours. If drugs were added, they were added at the same time as glutamate.
Quantification of cell death has been described previously (Cater et al., 2007; Morrison et al., 2002). Brightfield images of the hippocampal cultures were taken before injury for identification of regions of interest (ROI) including the dentate gyrus (DG), CA3 and CA1. Propidium iodide (PI, Invitrogen) was used as a fluorescent signal for cell death, and images were taken before the induction of injury and 24 hours following injury. […] Percentage cell death was expressed as the number of pixels in the ROI above a threshold in the PI fluorescent image divided by the total number of pixels in the ROI.

HT-1080 cells [4] = experiment: Modulatory profile of lethal small molecules (effect of Fer-1 on lethality of various compounds); assay type: cell-based, human; details: resynthesized Fer-1 0.5 μM
Procedure: The modulatory effect (Me) for drug-drug interactions was computed as follows. First, plate-based background correction was performed using Alamar Blue values from empty (cell-free) wells included on each plate. Next, within each experiment, 100% viability is determined as the average Alamar Blue score for cells treated with modulator=DMSO and lethal=DMSO, and all Alamar Blue values were scaled from 0 to 1 with the DMSO×DMSO condition=1. The individual effects of each modulator and lethal (e.g. in the presence of DMSO) at all tested doses were then ascertained. […] Next, BExp was compared to the actual observed viability. For each informative drug-drug interaction (i.e. modulator=“DFO”, modulator concentration=100 μM, lethal=Erastin) the modulatory effect (Me) was equivalent to the maximum observed deviation, positive or negative, from BExp. By default, Me in DMSO-treated cells is equal to 0. This formula was empirically determined to provide a useful measure of modulation that is robust to differences in the shapes of individual dose-response curves for different inhibitors and lethal molecules. Me values for each inhibitor-lethal drug combination were hierarchically clustered and plotted as a heatmap using the heatmaps.2 function of the gplots library in R. […]

## CCOC(=O)c1ccc(NC2CCCCC2)c(N)c1 [Fer-1, ferrostatin-1]
HT-1080 cells [1]
  EC50: 60 nM
[2]
  effect on erastin-induced ROS accumulation: prevent erastin-induced accumulation of cytosolic and lipid ROS
[3]
  glutamate-induced cell death (PI uptake): attenuated significantly and to an almost identical extent
HT-1080 cells [4]
  specificity of death inhibition against various lethal compounds: specifically inhibited RSL-induced death, but not cell death induced by other oxidative lethal compounds and apoptosis-inducing agents
